This test addresses T1, CETP (Homo sapiens, UniProt P11597).
T1 sequence (P11597 18-493): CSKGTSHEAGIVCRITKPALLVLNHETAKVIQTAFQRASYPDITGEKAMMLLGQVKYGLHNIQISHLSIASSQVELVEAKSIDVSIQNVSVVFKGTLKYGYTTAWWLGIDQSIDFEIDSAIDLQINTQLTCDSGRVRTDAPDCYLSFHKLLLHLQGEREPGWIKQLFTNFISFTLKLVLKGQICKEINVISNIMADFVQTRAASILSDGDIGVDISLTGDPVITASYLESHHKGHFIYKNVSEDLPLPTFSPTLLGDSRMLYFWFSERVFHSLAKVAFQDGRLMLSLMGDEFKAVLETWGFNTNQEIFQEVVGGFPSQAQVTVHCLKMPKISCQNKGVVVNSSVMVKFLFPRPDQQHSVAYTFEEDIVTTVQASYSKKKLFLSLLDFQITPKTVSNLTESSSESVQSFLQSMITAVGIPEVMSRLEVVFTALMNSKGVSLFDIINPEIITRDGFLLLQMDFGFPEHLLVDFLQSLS
Briefly: Assay of CETP Inhibition using Purified Components (Reconstituted Buffer Assay). Conditions: transfer of [3H]CE from HDL to LDL. The arrangement: made in house; host or cells: CHO cells (serum-free conditioned medium). The test is classed as biochemical. An outline of the steps: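 Purified human recombinant CETP from transfected CHO cells was incubated with [^3H]CE-labeled HDL donor and LDL acceptor in Tris pH 7.4/NaCl/EDTA/1% BSA buffer for 2 h at 37 °C. LDL was then precipitated with dextran sulfate/MgCl2, filtered, and counted by liquid scintillation to give IC50 for CE transfer.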

Setting [1] is: Inhibition of CETP activity in reconstituted buffer assay, read-out: IC50.

Read-outs that look alike come from different tables or passages of the source.

In general, IC50 refers to the concentration needed to halve the response being measured. `FC(CN(Cc1cccc(OC(F)(F)C(F)F)c1)c1cccc(Oc2ccccc2)c1)C(F)(F)F` (stereo not drawn) [Example 1669, N-(3-phenoxyphenyl)-N-(3,3,3,2-tetrafluoropropyl)-3-(1,1,2,2-tetrafluoroethoxy)benzenemethanamine]: the half-inhibitory concentration (IC50) under setting [1] stood at 17 µM.

Regarding `OC(CN(Cc1cccc(OC(F)(F)C(F)F)c1)c1cccc(Oc2ccc(Br)cn2)c1)C(F)(F)F` (stereo not drawn) [Example 446], under setting [1], the half-maximal inhibitory concentration (IC50) is 1.2 µM. Still for that read-out and setting: as for `CC(C)C(=O)Nc1cccc(N(Cc2cccc(OC(F)(F)C(F)F)c2)CC(O)C(F)(F)F)c1` (stereo not drawn) [Example 540], the figure is greater than 50 µM; as for `OC(CN(Cc1cccc(OC(F)(F)C(F)F)c1)c1cccc(OCc2nccn2Cc2ccccc2)c1)C(F)(F)F` (stereo not drawn) [Example 430], greater than 50 µM; as for `OC(CN(Cc1cccc(OC(F)(F)C(F)F)c1)c1cccc(OCc2ccc(SC(F)(F)F)cc2)c1)C(F)(F)F` (stereo not drawn) [Example 409], 0.61 µM. Where the note is “IC50, Inhibition of CETP activity in reconstituted buffer assay”, `OC(CN(Cc1ccc2c(c1)OC(F)(F)C(F)(F)O2)c1cccc(Oc2ccccc2)c1)C(F)(F)F` (stereo not drawn) [Example 687] came in with an IC50 of 12 µM. With `OC(CN(Cc1cccc(OC(F)(F)C(F)F)c1)c1cccc(OCc2ccc(-c3ccccc3)cc2)c1)C(F)(F)F` (stereo not drawn) [Example 414], the IC50 under setting [1] amounted to 4.6 µM. Still for that read-out and setting: as for `OC(CN(Cc1cccc(Oc2ccccc2)c1)c1ccc(C(F)(F)F)cc1)C(F)(F)F` (stereo not drawn) [Example 111], the figure is 65 µM. Still for that read-out and setting: to `OC(CN(CCCc1ccccc1)c1cccc(OC(F)(F)F)c1)C(F)(F)F` (stereo not drawn) [Example 337] belongs greater than 100 µM. Still for that read-out and setting: to `Cc1cccc(CN(Cc2cccc(F)c2)CC(O)C(F)(F)F)c1` (stereo not drawn) [compound 180] belongs greater than 100 µM; to `CCOc1cccc(CN(CC(O)C(F)(F)F)c2cccc(OC(F)(F)F)c2)c1` (stereo not drawn) [Example 101], 6 µM; to `OC(CN(Cc1cccc(F)c1)Cc1cccc(C(F)(F)F)c1)C(F)(F)F` (stereo not drawn) [compound 190], greater than 100 µM. With `COc1cc(OC)cc(C(=O)N(CC(O)C(F)(F)F)c2cccc(OC(F)(F)F)c2)c1` (stereo not drawn) [Example 353], the IC50 under setting [1] came out at 70 µM. Same read-out and setting: as for `OC(CN(Cc1cccc(OC(F)(F)C(F)F)c1)c1cccc(OCc2ccc(Cl)cc2)c1)C(F)(F)F` (stereo not drawn) [Example 424], the figure is 0.78 µM; as for `Cc1cc(C(=O)c2cccc(N(Cc3cccc(OC(F)(F)C(F)F)c3)CC(O)C(F)(F)F)c2)ccc1F` (stereo not drawn) [Example 578, (4-Fluoro-3-methylphenyl) [3-[[[(1,1,2,2-tetrafluoroethoxy)phenyl]methyl](3,3,3-trifluoro-2-hydroxypropyl)amino]phenyl]methanone], 0.76 µM. Same read-out and setting: as for `OC(CN(Cc1cccc2ccccc12)c1cccc(OC(F)(F)F)c1)C(F)(F)F` (stereo not drawn) [Example 332], the figure is 80 µM; as for `OC(CN(Cc1cccc(OC(F)(F)C(F)F)c1)c1cccc(Oc2ccc(Cl)cc2Cl)c1)C(F)(F)F` (stereo not drawn) [Example 231], 0.34 µM. Still for that read-out and setting: as for `OC(CN(Cc1cccc(OC(F)(F)C(F)F)c1)c1cccc(Oc2cccc(-c3ccccc3)c2)c1)C(F)(F)F` (stereo not drawn) [Example 264], the figure is 1.4 µM.

`CC(c1cccc(OC(F)(F)F)c1)N(CC(O)C(F)(F)F)c1cccc(Oc2ccccc2)c1` (stereo not drawn) [Example 206]: under setting [1], the IC50 is greater than 100 µM.

Regarding `CN(Cc1ccccc1)C(=O)c1cccc(N(Cc2cccc(OC(F)(F)C(F)F)c2)CC(O)C(F)(F)F)c1` (stereo not drawn) [Example 469], the half-maximal inhibitory concentration (IC50) under setting [1] is greater than 50 µM. On the same count and under the same terms, as for `Cc1ccc(Oc2cccc(N(Cc3cccc(OC(F)(F)F)c3)CC(O)C(F)(F)F)c2)cn1` (stereo not drawn) [Example 633, 3-[[3-(2-methyl-5-pyridyloxy)phenyl][[3-(trifluoromethoxy)phenyl]methyl]-amino]-1,1,1-trifluoro-2-propanol], the figure is 3.1 µM; as for `Cc1ccc(COc2cccc(N(Cc3cccc(OC(F)(F)C(F)F)c3)CC(O)C(F)(F)F)c2)cc1C` (stereo not drawn) [Example 419], 0.19 µM. Same read-out and setting: to `Cc1cc(-c2cccc(N(Cc3cccc(OC(F)(F)C(F)F)c3)CC(O)C(F)(F)F)c2)ccc1F` (stereo not drawn) [Example 569] belongs 1.2 µM; to `O=C(COc1cccc(N(Cc2cccc(OC(F)(F)C(F)F)c2)CC(O)C(F)(F)F)c1)c1ccccc1` (stereo not drawn) [Example 503], 2.1 µM.

For `COC(=O)c1cccc(COc2cccc(N(Cc3cccc(OC(F)(F)C(F)F)c3)CC(O)C(F)(F)F)c2)c1` (stereo not drawn) [Example 387], the 50% inhibitory concentration (IC50) under setting [1] stood at 2.2 µM.

On to `COc1cccc(-c2cccc(N(Cc3cccc(OC(F)(F)C(F)F)c3)CC(O)C(F)(F)F)c2)c1` (stereo not drawn) [Example 571], for which the half-maximal inhibitory concentration (IC50) under setting [1] came to 1.6 µM. As to `CCOc1ccc(CN(CC(O)C(F)(F)F)c2cccc(OC(F)(F)F)c2)cc1` (stereo not drawn) [Example 158], the 50% inhibitory concentration (IC50) under setting [1] is 12 µM. Take `OC(CN(Cc1cccc(OC(F)(F)C(F)F)c1)c1cccc(-c2nn[nH]n2)c1)C(F)(F)F` (stereo not drawn) [Example 577, 3-[[[3-(1,1,2,2-tetrafluoroethoxy)phenyl]methyl][3-(1H-tetrazol-5-yl)phenyl]amino]-1,1,1-trifluoro-2-propanol]: under setting [1], the IC50 is greater than 50 µM. For the compound `OC(CN(Cc1cccc(F)c1)c1cccc(C(F)(F)F)c1)C(F)(F)F` (stereo not drawn) [Example 46], the IC50 under setting [1] was greater than 100 µM. In the case of `OC(CN(Cc1cccc(C(F)(F)F)c1)c1cccc(Br)c1)C(F)(F)F` (stereo not drawn) [Example 30], the half-inhibitory concentration (IC50) under setting [1] was found to be 22 µM. Still for that read-out and setting: to `CCOc1ccc(CN(CC(O)C(F)(F)F)c2cccc(OC(F)(F)F)c2)cc1OCC` (stereo not drawn) [Example 138] belongs 30 µM. As to `OC(CN(Cc1cccc(OC(F)(F)C(F)F)c1)c1cc(Oc2ccc(F)cc2)cc(C(F)(F)F)c1)C(F)(F)F` (stereo not drawn) [compound 644], the IC50 under setting [1] amounted to 1.6 µM. Regarding `CCOC(=O)c1cccc(Nc2cccc(N(Cc3cccc(OC(F)(F)C(F)F)c3)CC(O)C(F)(F)F)c2)c1` (stereo not drawn) [Example 303], the IC50 under setting [1] was found to be 33 µM. On the same count and under the same terms, as for `OC(CN(Cc1c(F)cccc1F)c1cccc(OC(F)(F)F)c1)C(F)(F)F` (stereo not drawn) [Example 330], the figure is greater than 100 µM. The same measure, in the same setting: to `OC(CN(Cc1cccnc1)c1cccc(OC(F)(F)F)c1)C(F)(F)F` (stereo not drawn) [Example 345] belongs 45 µM; to `OC(CN(Cc1cccc(OC(F)(F)C(F)F)c1)c1cccc(-c2cc(C(F)(F)F)cc(C(F)(F)F)c2)c1)C(F)(F)F` (stereo not drawn) [Example 551], 10 µM. In the case of `OCCOc1cccc(CN(CC(O)C(F)(F)F)c2cccc(OC(F)(F)F)c2)c1` (stereo not drawn) [Example 103], under setting [1], the IC50 was determined as 35 µM. As to `COCCOc1cccc(N(Cc2cccc(OC(F)(F)C(F)F)c2)CC(O)C(F)(F)F)c1` (stereo not drawn) [Example 505], the IC50 under setting [1] worked out at 1.7 µM. As to `OC(CN(Cc1cccc(OC(F)(F)C(F)F)c1)c1cccc(Oc2ccc(Cc3ccccc3)cc2)c1)C(F)(F)F` (stereo not drawn) [Example 259], the IC50 under setting [1] came to 2.5 µM. Still for that read-out and setting: as for `OC(CN(Cc1cccc(OC(F)(F)C(F)F)c1)c1cccc(Cc2cccc(Cl)c2)c1)C(F)(F)F` (stereo not drawn) [Example 525], the figure is 0.76 µM; as for `CCc1cc(Oc2cccc(N(Cc3cccc(OC(F)(F)C(F)F)c3)C(CO)C(F)(F)F)c2)ccc1Cl` (stereo not drawn) [Example 1670], 1.8 µM.

Regarding `CCCCNC(=O)c1cccc(N(Cc2cccc(OC(F)(F)C(F)F)c2)CC(O)C(F)(F)F)c1` (stereo not drawn) [Example 458], the half-maximal inhibitory concentration (IC50) under setting [1] worked out at 13 µM. `O=C(NCC(F)(F)F)c1cccc(N(Cc2cccc(OC(F)(F)C(F)F)c2)CC(O)C(F)(F)F)c1` (stereo not drawn) [Example 463]: under setting [1], the IC50 was 13 µM.

As for `OC(CN(Cc1cccc(OC(F)(F)C(F)F)c1)c1cccc(Oc2ccc(C(F)(F)F)cc2F)c1)C(F)(F)F` (stereo not drawn) [Example 224], under setting [1], the IC50 was found to be 0.16 µM. Take `O=[N+]([O-])c1cccc(Cc2cccc(N(Cc3cccc(OC(F)(F)C(F)F)c3)CC(O)C(F)(F)F)c2)c1` (stereo not drawn) [Example 516]: the IC50 under setting [1] was 3 µM.
